Test results from patent US5104870A, “Heterocyclic pharmaceutical compounds and use” (Burroughs Wellcome Co., priority 1989, dated 1992).
Counter-ions that a name gives are not always drawn.

Test system: tetrabenazine-induced sedation
Assay: Antitetrabenazine test (prevention of tetrabenazine-induced sedation)
Assay type: in vivo
Details: Mus musculus, ip; CDl male mice; i.p. as hydrochloride salt in saline 30 min before tetrabenazine hydrochloride 35 mg/kg i.p.; exploratory behavior scored 30 min later; read-out: ED50 (amount of the test compound required to reverse the tetrabenazine effects in 50 percent of the animals tested)
Method: Prevention on of tetrabenazine-induced sedation was measured using a modification of the method of Vernier et al., First Hahnemann Symposium on Psychosomatic Medicine, ed. Nodim and Moyer, pub Lea and Febiger, Philadelphia. 1962.
Mice, groups of 12 CDl males each, were injected intraperitoneally (i.p.) with the hydrochloride salt of a compound of formula (I) in physiological saline solution or with physiological saline solution alone. Thirty minutes later each of the mice was injected (i.p.. 35 mg/kg) with a solution of tetrabenazine hydrochloride. Thirty minutes after the injection of tetrabenazine each mouse was examined for its level of exploratory behavior which was scored on a modification of the arbitrary scale defined by Vernier et al The result reported in Table I as the ED50 value is the amount of the test compound required to reverse the tetrabenazine effects in 50 percent of the animals tested.

First: C[C@@H]1CO[C@@](O)(c2cc(F)cc(F)c2)[C@H](C)N1C [Example 3, (2S,3S,5R)-2-(3.5.Difluorophenyl)-3,4,5,trimethyl-2-morpholinol hydrochloride, one-quarter hydrate]
Second: CCN1[C@H](C)CO[C@@](O)(c2cc(F)cc(F)c2)[C@@H]1C [Example 5, (2S,3S,5R)-2-(3,5-Difluorophenyl)-4-ethyl-3,5-dimethyl-2-morpholinol hydrochloride, monohydrate]
The ED50 of the first is 5-fold lower: 0.6 mg/kg for the first, 3 mg/kg for the second.

Going from C[C@@H]1CO[C@@](O)(c2cc(F)cc(F)c2)[C@H](C)N1.Cl [Example 2, (2S,3S,5R)-2-(3,5-difluorophenyl)-3,5-dimethyl-2-morpholinol hydrochloride] to C[C@H]1CO[C@](O)(c2cc(F)cc(F)c2)[C@@H](C)N1.Cl (relative stereo) [Example 1, (+-)-(2R*,3R*,5S*)-2-(3,5-Difluorophenyl)-3,5-dimethyl-2-morpholinol hydrochloride], the ED50 falls from 5 mg/kg to 2 mg/kg (2.5-fold).

C[C@@H]1CO[C@@](O)(c2cc(F)cc(F)c2)[C@H](C)N1C (relative stereo) [Example 4, (+-)-(2R*,3R*,5S*)-2-(3,5-Difluorophenyl)-3,4,5,trimethyl-2-morpholinol hydrochloride] was tested, and the ED50 was 3 mg/kg.
